# Measured values published in patent publication US20100028485A1, “TALAROMYCES EMERSONII ENZYME SYSTEMS” (priority 2006, published 2010).
# Where two headings read alike, the source gives them in different places.
# Experiments:
# Assay type in all cases: biochemical, Talaromyces emersonii
# EG VII = assay: Effects of metal ions, chemical modification reagents, detergents and potential inhibitors on EG VII; conditions: for EG VII activity after protection experiment (control = 100.0): 1st incubation (30 min) enzyme + reagent, 2nd incubation (30 min) + NBS; for EG VII activity, Enzyme + reagent (control = 100.0): Preincubation of enzyme with reagent for 30 min (50 C) prior to addition of substrate; for EG VII activity, Substrate + reagent (control = 100.0): Preincubation of substrate with reagent for 30 min (50 C) prior to addition of enzyme
# Description: (§1) Substrate specificity on various polysaccharides and synthetic glycosides was evaluated by 15 measuring activity against a wide variety of carbohydrates (BBG, lichenan, CMC, other polysaccharides and synthetic glycosides) using the normal β-glucanase assay procedure. • Effects Of Metal Ions, Chemical Modification Reagents And Potential Inhibitors A range of monovalent, divalent and heavy metal ions, at final assay concentrations of 1.0 mM, were investigated for their potential effects on the activities of EG V, EG VI and EG VII, by incubating the enzymes with the chemicals and then conducting the normal enzyme assay. Finally, the inhibitor effects of glycosides, such as disaccharides, lactones and flavanoid glycosides on the purified enzymes were examined. Specified concentrations of each glycoside were included in normal assay cocktails and residual activity determined by comparison with controls (no glycoside present).
# (§2) Activity was expressed as a % relative to a control (no metal ion present in incubation mixture). In general, heavy metal ions are thought to inactivate enzymes by forming covalent salts with cysteine, histidine or carboxyl groups. […] A selection of reagents known to modify amino acid R-groups in proteins were tested for their effects on EG V, EG VI and EG VII, both in the absence and presence of substrate (substrate-protective effects could be observed in this manner) (see Table 6).
# EG V = assay: Effects of metal ions, chemical modification reagents, detergents and potential inhibitors on EG V; design: decrease in activity of EG V by detergent / loss of activity of EG V by detergent: concentration or dose not given beside the values; conditions: for EG V activity after protection experiment (control = 100.0): 1st incubation (30 min) enzyme + reagent, 2nd incubation (30 min) + NBS; for EG V activity, Enzyme + reagent (control = 100.0): Preincubation of enzyme with reagent for 30 min (50 C) prior to addition of substrate; for EG V activity, Substrate + reagent (control = 100.0): Preincubation of substrate with reagent for 30 min (50 C) prior to addition of enzyme
# Description: as §1, §2
# EG VI = assay: Effects of metal ions, chemical modification reagents, detergents and potential inhibitors on EG VI; conditions: for EGVI activity after protection experiment (control = 100.0): 1st incubation (30 min) enzyme + reagent, 2nd incubation (30 min) + NBS; for EV VI activity, Enzyme + reagent (control = 100.0): Preincubation of enzyme with reagent for 30 min (50 C) prior to addition of substrate; for EGVI activity, Substrate + reagent (control = 100.0): Preincubation of substrate with reagent for 30 min (50 C) prior to addition of enzyme; for increase in activity of EG VI: 1 mM metal ion, relative to control without metal ion
# Description: as §1, §2
# [1] = 1 mM metal ion, relative to control without metal ion
# [2] = pre-incubated with enzyme in advance of the addition of substrate
Compound,"EG VII activity, Enzyme + reagent (control = 100.0) (EG VII)","EG VII activity, Substrate + reagent (control = 100.0) (EG VII)","EG V activity, Enzyme + reagent (control = 100.0) (EG V)","EG V activity, Substrate + reagent (control = 100.0) (EG V)","EV VI activity, Enzyme + reagent (control = 100.0) (EG VI)","EGVI activity, Substrate + reagent (control = 100.0) (EG VI)",other results
OC(CS)C(O)CS (racemic) [DL-DTT],575.0,348.6,218.9,264.3,514.3,915.5,EG VII activity after protection experiment (control = 100.0) (EG VII): 94.6; EG V activity after protection experiment (control = 100.0) (EG V): 204.3; EGVI activity after protection experiment (control = 100.0) (EG VI): 140.0
"[Cl-].c1ccc(-c2nn(-c3ccccc3)[n+](-c3ccccc3)n2)cc1 [2,3,5-Triphenyltetrazolium Chloride]",98.5,100.0,97.5,89.1,97.6,97.4,–
[Ba+2] [Ba^2+],–,–,–,–,–,–,decrease in activity of EG V (EG V; [1]): 16.5%; increase in activity of EG VI (EG VI): 37.6%
[Ca+2] [Ca^2+],–,–,–,–,–,–,enhancement of EG VII activity by SO4^2− salt relative to corresponding Cl^− salt (EG VII; 1 mM): ~2 fold; decrease in activity of EG V (EG V; [1]): 21.5-24.6%; increase in activity of EG VI (EG VI): 10%
N[C@@H](CS)C(=O)O [Cysteine],196.5,367.7,163.8,237.8,170.4,370.20,EG VII activity after protection experiment (control = 100.0) (EG VII): 167.0; EG V activity after protection experiment (control = 100.0) (EG V): 117.0; EGVI activity after protection experiment (control = 100.0) (EG VI): 217.0
C[S+](C)[O-] [Dimethylsuphoxide],194.0,100.0,125.5,93.6,124.3,141.7,–
O[C@H](CS)[C@@H](O)CS [Dithioerythritol],773.8,360.9,270.6,271.9,657.2,917.90,–
[K+] [K^+],–,–,–,–,–,–,increase in activity of EG VII (EG VII): 20%
"O=C1CCC(=O)N1Br [N-Bromosuccinimide (NBS), N-Bromosuccinimide]",0.0,0.0,0.0,0.0,0.0,0.0,EG VII activity after protection experiment (control = 100.0) (EG VII): 0.0; EG V activity after protection experiment (control = 100.0) (EG V): 0.0; EGVI activity after protection experiment (control = 100.0) (EG VI): 0.0
[Na+] [Na^+],–,–,–,–,–,–,increase in activity of EG V (EG V; [1]): > 39%
[BH4-].[Na+] [Sodium borohydride],194.0,82.8,96.1,81.5,125.0,104.8,–
OC[C@H]1O[C@@H](O[C@H]2[C@H](O)[C@@H](O)C(O)O[C@@H]2CO)[C@H](O)[C@@H](O)[C@H]1O (stereo partly shown) [lactose],–,–,–,–,–,–,concentrations inhibiting EG V (EG V): > 75 mM
C[C@H](CCC(=O)NCCS(=O)(=O)O)[C@H]1CC[C@H]2[C@@H]3[C@H](O)C[C@@H]4C[C@H](O)CC[C@]4(C)[C@H]3C[C@H](O)[C@]12C [taurocholic acid],–,–,–,–,–,–,decrease in activity of EG V by detergent (EG V): 47.7%
C[C@H](CCC(=O)NCCS(=O)(=O)O)[C@H]1CC[C@H]2[C@@H]3CC[C@@H]4C[C@H](O)CC[C@]4(C)[C@H]3C[C@H](O)[C@]12C [taurodeoxycholic acid],–,–,–,–,–,–,decrease in activity of EG V by detergent (EG V; [2]): 22.7%
Tween 20,–,–,–,–,–,–,decrease in activity of EG V by detergent (EG V; [2]): 12.7%
Tween 80,–,–,–,–,–,–,decrease in activity of EG V by detergent (EG V; [2]): 30.8%; loss of activity of EG V by detergent (EG V; simultaneous incubation with substrate): 34.2%
